Measurements taken from ChEMBL document CHEMBL3856258, “Phosphonate-based irreversible inhibitors of human γ-glutamyl transpeptidase (GGT). GGsTop is a non-toxic and highly selective inhibitor with critical electrostatic interaction with an active-site residue Lys562 for enhanced inhibitory activity” (Bioorg Med Chem, 2016).

Assays:
Salmonella typhimurium [1] = experiment: Genotoxicity in Salmonella typhimurium TA1535 assessed as number of revertant colonies per plate at 20.6 ug/plate after 20 mins in absence of S9 fraction by Ames test (reference value: 15); assay type: toxicity, organism-based; details: salmonella enterica subsp. enterica serovar typhimurium
Salmonella typhimurium [2] = experiment: Genotoxicity in Salmonella typhimurium TA1535 assessed as number of revertant colonies per plate at 185 ug/plate after 20 mins in absence of S9 fraction by Ames test (reference value: 15); assay type: toxicity, organism-based; details: salmonella enterica subsp. enterica serovar typhimurium
Salmonella typhimurium [3] = experiment: Genotoxicity in Salmonella typhimurium TA1535 assessed as number of revertant colonies per plate at 556 ug/plate after 20 mins in absence of S9 fraction by Ames test (reference value: 15); assay type: toxicity, organism-based; details: salmonella enterica subsp. enterica serovar typhimurium
Salmonella typhimurium [4] = experiment: Genotoxicity in Salmonella typhimurium TA1535 assessed as number of revertant colonies per plate at 1667 ug/plate after 20 mins in absence of S9 fraction by Ames test (reference value: 15); assay type: toxicity, organism-based; details: salmonella enterica subsp. enterica serovar typhimurium
Salmonella typhimurium [5] = experiment: Genotoxicity in Salmonella typhimurium TA1535 assessed as number of revertant colonies per plate at 5000 ug/plate after 20 mins in absence of S9 fraction by Ames test (reference value: 15); assay type: toxicity, organism-based; details: salmonella enterica subsp. enterica serovar typhimurium
Escherichia coli [6] = experiment: Genotoxicity in Escherichia coli WP2uvrA assessed as number of revertant colonies per plate at 20.6 ug/plate after 20 mins in absence of S9 fraction by Ames test (reference value: 24); assay type: toxicity; details: s9, 20 min
Escherichia coli [7] = experiment: Genotoxicity in Escherichia coli WP2uvrA assessed as number of revertant colonies per plate at 556 ug/plate after 20 mins in absence of S9 fraction by Ames test (reference value: 24); assay type: toxicity; details: s9, 20 min
Salmonella typhimurium [8] = experiment: Genotoxicity in Salmonella typhimurium TA98 assessed as number of revertant colonies per plate at 556 ug/plate after 20 mins in absence of S9 fraction by Ames test (reference value: 21); assay type: toxicity, organism-based; details: salmonella enterica subsp. enterica serovar typhimurium
Salmonella typhimurium [9] = experiment: Genotoxicity in Salmonella typhimurium TA1537 assessed as number of revertant colonies per plate at 20.6 ug/plate after 20 mins in absence of S9 fraction by Ames test (reference value: 9); assay type: toxicity, organism-based; details: salmonella enterica subsp. enterica serovar typhimurium
Salmonella typhimurium [10] = experiment: Genotoxicity in Salmonella typhimurium TA100 assessed as number of revertant colonies per plate at 1667 ug/plate after 20 mins in presence of S9 fraction by Ames test (reference value: 142); assay type: toxicity, organism-based; details: salmonella enterica subsp. enterica serovar typhimurium
Salmonella typhimurium [11] = experiment: Genotoxicity in Salmonella typhimurium TA1535 assessed as number of revertant colonies per plate at 556 ug/plate after 20 mins in presence of S9 fraction by Ames test (reference value: 13); assay type: toxicity, organism-based; details: salmonella enterica subsp. enterica serovar typhimurium
Salmonella typhimurium [12] = experiment: Genotoxicity in Salmonella typhimurium TA1535 assessed as number of revertant colonies per plate at 1667 ug/plate after 20 mins in presence of S9 fraction by Ames test (reference value: 13); assay type: toxicity, organism-based; details: salmonella enterica subsp. enterica serovar typhimurium
Salmonella typhimurium [13] = experiment: Genotoxicity in Salmonella typhimurium TA98 assessed as number of revertant colonies per plate at 20.6 ug/plate after 20 mins in presence of S9 fraction by Ames test (reference value: 26); assay type: toxicity, organism-based; details: salmonella enterica subsp. enterica serovar typhimurium
Salmonella typhimurium [14] = experiment: Genotoxicity in Salmonella typhimurium TA98 assessed as number of revertant colonies per plate at 556 ug/plate after 20 mins in presence of S9 fraction by Ames test (reference value: 26); assay type: toxicity, organism-based; details: salmonella enterica subsp. enterica serovar typhimurium
Salmonella typhimurium [15] = experiment: Genotoxicity in Salmonella typhimurium TA1537 assessed as number of revertant colonies per plate at 185 ug/plate after 20 mins in presence of S9 fraction by Ames test (reference value: 15); assay type: toxicity, organism-based; details: salmonella enterica subsp. enterica serovar typhimurium
[16] = Cytotoxicity against CHL cells assessed as growth rate at 13.5 ug/ml preincubated for 6 hrs followed by 18 hrs incubation in fresh medium in absence of S9 fraction by MTT assay relative to control; assay type: toxicity, cell-based, Cricetulus griseus; details: chinese hamster, read-out: Activity
[17] = Cytotoxicity against CHL cells assessed as growth rate at 84.5 ug/ml preincubated for 6 hrs followed by 18 hrs incubation in fresh medium in absence of S9 fraction by MTT assay relative to control; assay type: toxicity, cell-based, Cricetulus griseus; details: chinese hamster, read-out: Activity
[18] = Cytotoxicity against CHL cells assessed as growth rate at 211 ug/ml preincubated for 6 hrs followed by 18 hrs incubation in fresh medium in absence of S9 fraction by MTT assay relative to control; assay type: toxicity, cell-based, Cricetulus griseus; details: chinese hamster, read-out: Activity
[19] = Cytotoxicity against CHL cells assessed as growth rate at 5.41 ug/ml preincubated for 6 hrs followed by 18 hrs incubation in fresh medium in presence of S9 fraction by MTT assay relative to control; assay type: toxicity, cell-based, Cricetulus griseus; details: chinese hamster, read-out: Activity
[20] = Cytotoxicity against CHL cells assessed as growth rate at 33.8 ug/ml preincubated for 6 hrs followed by 18 hrs incubation in fresh medium in presence of S9 fraction by MTT assay relative to control; assay type: toxicity, cell-based, Cricetulus griseus; details: chinese hamster, read-out: Activity
[21] = Cytotoxicity against CHL cells assessed as growth rate at 2.16 ug/ml after 24 hrs in absence of S9 fraction by MTT assay relative to control; assay type: toxicity, cell-based, Cricetulus griseus; details: chinese hamster, read-out: Activity
[22] = Cytotoxicity against CHL cells assessed as growth rate at 33.8 ug/ml after 24 hrs in absence of S9 fraction by MTT assay relative to control; assay type: toxicity, cell-based, Cricetulus griseus; details: chinese hamster, read-out: Activity
[23] = Cytotoxicity against CHL cells assessed as growth rate at 84.5 ug/ml after 24 hrs in absence of S9 fraction by MTT assay relative to control; assay type: toxicity, cell-based, Cricetulus griseus; details: chinese hamster, read-out: Activity
[24] = Cytotoxicity against CHL cells assessed as structural aberrations at 825 ug/ml preincubated for 6 hrs followed by 18 hrs incubation in fresh medium in absence of S9 fraction by Giemsa-staining-based microscopic analysis; assay type: toxicity, cell-based, Cricetulus griseus; details: chinese hamster
[25] = Cytotoxicity against CHL cells assessed as structural aberrations at 3300 ug/ml preincubated for 6 hrs followed by 18 hrs incubation in fresh medium in absence of S9 fraction by Giemsa-staining-based microscopic analysis; assay type: toxicity, cell-based, Cricetulus griseus; details: chinese hamster
[26] = Cytotoxicity against CHL cells assessed as structural aberrations at 3300 ug/ml preincubated for 6 hrs followed by 18 hrs incubation in fresh medium in presence of S9 fraction by Giemsa-staining-based microscopic analysis; assay type: toxicity, cell-based, Cricetulus griseus; details: chinese hamster
[27] = Cytotoxicity against CHL cells assessed as chromatid gap at 825 ug/ml preincubated for 6 hrs followed by 18 hrs incubation in fresh medium in presence of S9 fraction by Giemsa-staining-based microscopic analysis; assay type: toxicity, cell-based, Cricetulus griseus; details: chinese hamster
[28] = Hydrolytic stability of compound in D2O at pH 1 to 2 by 31P NMR spectroscopy; assay type: physicochemical; details: buffer
[29] = Cytotoxicity against CHL cells assessed as number of cells with numerical aberrations at 825 ug/ml preincubated for 6 hrs followed by 18 hrs incubation in fresh medium in absence of S9 fraction by Giemsa-staining-based microscopic analysis relative to control; assay type: toxicity, cell-based, Cricetulus griseus; details: chinese hamster
[30] = Cytotoxicity against CHL cells assessed as number of cells with numerical aberrations at 3300 ug/ml preincubated for 6 hrs followed by 18 hrs incubation in fresh medium in absence of S9 fraction by Giemsa-staining-based microscopic analysis relative to control; assay type: toxicity, cell-based, Cricetulus griseus; details: chinese hamster
[31] = Cytotoxicity against CHL cells assessed as number of cells with numerical aberrations at 1650 ug/ml preincubated for 6 hrs followed by 18 hrs incubation in fresh medium in presence of S9 fraction by Giemsa staining-based microscopic analysis relative to control; assay type: toxicity, cell-based, Cricetulus griseus; details: chinese hamster
[32] = Cytotoxicity against CHL cells assessed as number of cells with numerical aberrations at 1650 ug/ml after 24 hrs by Giemsa staining-based microscopic analysis relative to control; assay type: toxicity, cell-based, Cricetulus griseus; details: chinese hamster
[33] = Cytotoxicity against CHL cells assessed as number of cells with numerical aberrations at 3300 ug/ml after 24 hrs by Giemsa staining-based microscopic analysis relative to control; assay type: toxicity, cell-based, Cricetulus griseus; details: chinese hamster

Which Activity (Salmonella typhimurium [1]) does the source give for `COP(=O)(CCC(N)C(=O)O)Oc1cccc(CC(=O)O)c1` (stereo not drawn) here?
The Activity was 15.

What about the Activity (Salmonella typhimurium [2]) of the same molecule?
The Activity was 12.

And the Activity (Salmonella typhimurium [3])?
Its Activity is 8.

What about the Activity (Salmonella typhimurium [4]) of the same molecule?
The Activity was 11.

And the Activity (Salmonella typhimurium [5])?
The Activity was 13.

And the Activity (Escherichia coli [6])?
The Activity was 26.

What about the Activity (Escherichia coli [7]) of the same molecule?
The Activity was 25.

What about the Activity (Salmonella typhimurium [8]) of the same molecule?
The Activity was 29.

What about the Activity (Salmonella typhimurium [9]) of the same molecule?
Its Activity is 9.

What about the Activity (Salmonella typhimurium [10]) of the same molecule?
Its Activity is 131.

And the Activity (Salmonella typhimurium [11])?
The Activity was 12.

And the Activity (Salmonella typhimurium [12])?
Its Activity is 8.

What about the Activity (Salmonella typhimurium [13]) of the same molecule?
The Activity was 29.

And the Activity (Salmonella typhimurium [14])?
The Activity was 28.

And the Activity (Salmonella typhimurium [15])?
Its Activity is 12.

And the viability at 18 h, 13.5 ug/ml [16]?
The viability at 18 h, 13.5 ug/ml was 100%.

What about the viability at 18 h, 84.5 ug/ml [17] of the same molecule?
The viability at 18 h, 84.5 ug/ml was 102%.

And the viability at 18 h, 211 ug/ml [18]?
The viability at 18 h, 211 ug/ml was 101%.

What about the viability at 18 h, 5.41 ug/ml [19] of the same molecule?
Its viability at 18 h, 5.41 ug/ml is 102%.

And the viability at 18 h, 33.8 ug/ml [20]?
The viability at 18 h, 33.8 ug/ml was 101%.

And the viability at 24 h, 2.16 ug/ml [21]?
Its viability at 24 h, 2.16 ug/ml is 98%.

And the viability at 24 h, 33.8 ug/ml [22]?
The viability at 24 h, 33.8 ug/ml was 105%.

And the viability at 24 h, 84.5 ug/ml [23]?
Its viability at 24 h, 84.5 ug/ml is 101%.

What about the Activity [24] of the same molecule?
The Activity was 3%.

What about the Activity [25] of the same molecule?
Its Activity is 1%.

What about the Activity [26] of the same molecule?
Its Activity is 1%.

And the Activity [27]?
The Activity was 0%.

What about the Stability [28] of the same molecule?
Its Stability is “Stable”.

What about the Activity [29] of the same molecule?
Its Activity is 0%.

And the Activity [30]?
Its Activity is 0%.

And the Activity [31]?
Its Activity is 0%.

What about the Activity [32] of the same molecule?
Its Activity is 0%.

What about the Activity [33] of the same molecule?
Its Activity is 0%.
